Source: patent US20250066417A9, “NEW PEPTIDE-BASED DIAGNOSTIC AND THERAPEUTIC AGENTS” (ENLITISA (SHANGHAI) PHARMACEUTICAL CO., LTD., priority 2021, published 2025)
“And” between values parts separate entries of the source, which are not always exact repeats. Equal entries are not always repeated. Bridges are numbered along the chain shown (N, C = ends). Roman numbers before positions name the chains, in order. Where no end group is shown, it is not given here. [ ]: non-standard residue; d: D form. Dopa = N[C@@H](Cc1ccc(O)c(O)c1)C(=O)O; ACP = 6-aminocaproic acid (linker); Hyp = O=C(O)[C@@H]1C[C@@H](O)CN1

How the values were obtained:
[1] = Pharmacokinetic study of tritium-labelled peptide after rectal administration (total radioactivity by liquid scintillation); conditions: for Total radioactivity at 168 h (Cmax %): 168 h as % of Cmax
Protocol: 1 mL of a pH 5.0 acetic acid solution was added to the product of Example 3 above with even mixing. 0.952 mL of the resultant solution was added to a 40 mL glass bottle.
About 200 μL of 0.5% Evans Blue aqueous solution was added followed by even mixing. […] 30 Sprague-Dawley rats, half male and half female (Beijing Vital River Laboratory Animal Technology Co., Ltd.) were quarantined and acclimatised in polycarbonate cages for 5 to 7 days. The environmental conditions were controlled at room temperature of between 20° C. and 26° C., with a relative humidity of between 40% and 70%, with 12 hours of alternating lightness and darkness.
The body weights required for randomization were obtained on Day 1 (before dosing). After randomization, rats were assigned to one of five groups (three animals per sex in each group).
After weighing, animals were anesthetized by Intramuscular Injection of Zoletil-50. The animals were placed on their backs. Stools at the end of their rectums were gently squeezed out, and the skin around anus was disinfected with 75% alcohol.
A closed catheter (No. 8, double lumen with guide wire) was Inserted Into the anus of the rats to a depth of about 3 cm, and then a gastric lavage needle was slowly Inserted to a depth of at least 3.5 cm. After lifting the perlanal skin, fixing the catheter and the gavage needle, about 1 mL of water was Injected Into the bladder cavity of the syringe guide catheter to make it expand. Then the gel comprising the title compound was given quickly through the needle.
After administration, the catheter was ligated and fixed by wrapping tape around the root of the rats' tails. The catheter remained in the rectum for about 4 hours before removal.
Blood, rectal contents and rectal mucosa samples were collected. All centrifuge tubes coated with EDTA-K2 were stored either in a refrigerator (at 2 to 8° C.) or In a cooler filled with Ice, and were protected from light prior to use. The collected blood was transferred Into the centrifuge tubes and stored in an Ice box protected from light after being mixed manually by reversing the tubes at least 5 times.
Then, the tubes were centrifuged at 1800 g for 10 minutes at between 2 and 8° C., 2 hours after blood collection. After centrifugation, the collected plasma samples were transferred Into newly-labeled centrifuge tubes and aliquoted Into two sets, stored ay below −70° C.
Plasma, rectal contents and rectal mucosa samples were analyzed using a liquid scintillation counter, and the radioactive concentration was calculated according to the actual sampling volume. Half-lives were also calculated using WinNonlin software. MS Excel was used for data statistical analysis, including mean, standard deviation (SD), and coefficient of variation (CV), etc.
Total radioactivity unit (ng Eq./g)=DPM/g÷S.A. ×1000, S.A.=144,300 DPM/μg

[2] = Fluorescence stability of the 0.05 mg/mL aqueous solution at room temperature; type: physicochemical; conditions: 0.05 mg/mL in distilled water, after one hour at room temperature
Protocol: (§1) The title compound of Example 1 above was dissolved in distilled water to make a 0.05 mg/mL solution. The fluorescence absorption of the solution was scanned at 520 nm using a Hitachi F-7000 fluorescence spectrophotometer with an Interval of 20 nm. The optimal excitation wavelength was 450 nm and the maximum absorption wavelength was 521 nm.

[3] = tested on: rat rectum; assay: In vivo adhesive study: fluorescence imaging of rat rectum after rectal injection
Protocol: as §1
In an in vivo study, four rats were anesthetized by intraperitoneal injection of 5% chloral hydrate at a dose of 7 ml/kg. 1 mL of the solution of test compound was Injected Into the rectum using a 2 mL syringe. Swallowtail clamps were used to seal the anus to keep the liquid in rectum for about 2 hours. Rats were sacrificed at 2 hours, 4 hours, 8 hours and 24 hours after injection of test compound.
(§2) In a separate ex vivo study, rats were anesthetized and their abdominal cavities opened. 8 cm of the rectum was removed and cut Into 2 pieces, with fat and contents stripped. 1 mL of normal saline was used to flush the rectal cavities, which were then placed Into a constant humidity plate. 1 mL of the solution of test compound was Injected Into the rectum and ligated at both ends. Samples were taken at 0 hours, 0.5 hours, 1 hour and 2 hours for fluorescence imaging. A MZX81 fluorescence stereomicroscope was used for imaging (Guangzhou Micro-Shot Technology Co., Ltd).
(§3) The fluorescence Images are show in FIG. 1 (in vivo study) and FIG. 2 (ex vivo study).

[4] = tested on: rat rectum; assay: Ex vivo adhesive study: fluorescence imaging of excised rat rectum; conditions: rat rectum, 0, 0.5, 1 and 2 hours, FIG. 2
Protocol: as §1, §2, §3

I: AKPSY[Hyp]T[Dopa][Hyp]KKK-OH / II: AKPSY[Hyp]T[Dopa][Hyp]KK / III: AKPSY[Hyp]T[Dopa][Hyp]K / IV: AKPSY[Hyp]T[Dopa][Hyp]K (amide I:11-IV:C, I:12-II:C, II:11-III:C) [Example 3, ^3H-Labelled [(Ala-Lys-Pro-Ser-Tyr-Hyp-Thr-DOPA-Hyp-Lys)2-Lys]2-Lys]
radioactivity in rectal mucosa relative to rectal contents ([1]; 24 hours after administration): about 6.01 times
radioactivity in rectal mucosa relative to rectal contents ([1]; 72 hours after administration): ~3.32 times
radioactivity in rectal mucosa relative to rectal contents ([1]; 168 hours): 2.28 times
radioactivity concentration of rectal mucosa relative to plasma ([1]; one hour after rectal administration): 1121 times
Total radioactivity ([1]; plasma, 1 h, rectal 1.5 mg/100 μCi/kg, rats): 47.8 ng Eq./g and 47.8 ± 12.2 ng Eq./g
Total radioactivity ([1]; plasma, 6 h, rectal 1.5 mg/100 μCi/kg, rats): 54.1 ng Eq./g and 54.1 ± 14.4 ng Eq./g
Total radioactivity ([1]; plasma, 24 h, rectal 1.5 mg/100 μCi/kg, rats): 18.6 ± 6.2 ng Eq./g
Total radioactivity ([1]; plasma, 72 h, rectal 1.5 mg/100 μCi/kg, rats): 15.2 ± 8.4 ng Eq./g
Total radioactivity ([1]; plasma, 168 h, rectal 1.5 mg/100 μCi/kg, rats): 13.3 ± 3.41 ng Eq./g
tolerability of the experimental dose ([1]; rectal 1.5 mg/100 μCi/kg, rats): well tolerated
adverse reaction after administration ([1]; rectal 1.5 mg/100 μCi/kg, rats, whole experiment): no obvious adverse reaction
time of highest total radioactivity after administration ([1]; rectal contents): 1 h
Total radioactivity ([1]; rectal contents, 1 h, rectal 1.5 mg/100 μCi/kg, rats): 35322 ng Eq./g and 35322 ± 515 ng Eq./g
Total radioactivity ([1]; rectal contents, 6 h, rectal 1.5 mg/100 μCi/kg, rats): 21981 ± 153 ng Eq./g
Total radioactivity ([1]; rectal contents, 24 h, rectal 1.5 mg/100 μCi/kg, rats): 56.4 ± 54. ng Eq./g
average concentration at 24 hours as % of Cmax ([1]; rectal contents): ~0.16%
Total radioactivity ([1]; rectal contents, 72 h, rectal 1.5 mg/100 μCi/kg, rats): 44.3 ± 27. ng Eq./g
Total radioactivity ([1]; rectal contents, 168 h, rectal 1.5 mg/100 μCi/kg, rats): 16.5 ng Eq./g and 16.5 ± 6.88 ng Eq./g
Total radioactivity at 168 h (Cmax %) ([1]; rectal contents): 0.05%
time of highest total radioactivity after administration ([1]; rectal mucosa): 1 h
Total radioactivity ([1]; rectal mucosa, 1 h, rectal 1.5 mg/100 μCi/kg, rats): 53593 ng Eq./g and 53593 ± 472 ng Eq./g
radioactivity concentration of rectal mucosa relative to that at 1 h ([1]; rectal mucosa, 6 h (11163 ng Eq./g)): about 20.83%
Total radioactivity ([1]; rectal mucosa, 6 h, rectal 1.5 mg/100 μCi/kg, rats): 11163 ng Eq./g and 11163 ± 702 ng Eq./g
Total radioactivity ([1]; rectal mucosa, 24 h, rectal 1.5 mg/100 μCi/kg, rats): 339 ng Eq./g and 339 ± 95. ng Eq./g
average concentration at 24 hours as % of Cmax ([1]; rectal mucosa): about 0.63%
Total radioactivity ([1]; rectal mucosa, 72 h, rectal 1.5 mg/100 μCi/kg, rats): 147 ng Eq./g and 147 ± 84. ng Eq./g
Total radioactivity ([1]; rectal mucosa, 168 h, rectal 1.5 mg/100 μCi/kg, rats): 37.6 ng Eq./g and 37.6 ± 10.2 ng Eq./g
Total radioactivity at 168 h (Cmax %) ([1]; rectal mucosa): 0.07%
gender differences in total radioactivity concentrations ([1]; rectal mucosa, rectal contents and plasma, male vs female rats): no significant gender differences

[5-FITC-ACP-Ala-Lys-Pro-Ser-Tyr-Hyp-Thr-DOPA-Hyp-Lys)2-Lys]2-Lys ({5‑FITC-ACP}-AKPSY[Hyp]T[Dopa][Hyp]K; also: branched dendrimer: four peptide copies on a three-Lys core) [Example 1]
fluorescence intensity (stability of test compound in solution) [2]: did not change
adhesiveness of test compound to mucous ([3]; rat rectum, 2, 4, 8 and 24 hours after injection, FIG. 1): very stable
fluorescence intensity in the in vivo samples ([3]; rat rectum, even with constant fecal excretion): did not decrease significantly
adhesiveness of test compound to mucous [4]: very stable
